Experimental data: the NIST ThermoML archive (doi:10.1016/j.fluid.2008.07.012)
Numbers after ± are expanded uncertainties.

Conditions: Crystal; DTA

Row | SMILES | Normal melting temperature
1 | CC(C)CCC[C@@H](C)[C@H]1CC[C@H]2[C@@H]3CC=C4C[C@@H](OC(=O)c5ccccc5)CC[C@]4(C)[C@H]3CC[C@]12C [3β-benzoyloxycholest-5-ene] | 150 ± 1 °C
2 | CCCC(=O)O[C@H]1CC[C@@]2(C)C(=CC[C@H]3[C@@H]4CC[C@H]([C@H](C)CCCC(C)C)[C@@]4(C)CC[C@@H]32)C1 [3β-butanoyloxycholest-5-ene] | 99 ± 1 °C
